Consider 1 compound from patent US9115145B2, “Tocotrienol derivatives and associated methods” (FIRST TECH INTERNATIONAL LIMITED, priority 2011, dated 2015).

pIC50: −log10 of the molar value.

The subject of the test is MDA-MB-231 human breast cancer cells. The experiment in a line: Wound-healing assay (cell migration). The format is cell-based. The settings on record: MDA-MB-231, wound-healing assay, dose response; read-out: IC50 antimigratory activity. The gist of the method:
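Scratch wounds made in confluent (>95%) monolayers, then compounds added in fresh medium (5 μM in screening; concentration range in follow-up), DMSO as negative control, triplicate. After 24 h serum-starved at 37 °C, cells fixed and Diff-Quick stained. Migrated cells counted per 400× field (≥3 fields); IC50 from concentration range.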

As for `CC(C)=CCC/C(C)=C/CC/C(C)=C/CC[C@]1(C)CCc2cc(O)c(C)c(C)c2O1` [Compound 1, γ-tocotrienol, reference compound], the pIC50 – broadly, −log10 of the IC50, conventionally taken in molar units – was below 4.40.
